Experimental data taken from PubChem BioAssay (NCI).
Where “and” joins values, the source holds several entries; their conditions need not be identical. Equal entries are not always repeated.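 Tested at 5 concentrations; 48 h exposure; 96-well plates; endpoints linearly interpolated, else capped at highest concentration. GI50: concentration for 50% inhibition of growth. The concentration for full growth arrest is given as TGI.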

These molecules were tested on MDA-MB-468 breast (assay: NCI anticancer screen, dose series, 48 h).

| Compound | GI50 | TGI |
| --- | --- | --- |
| COc1ccc(-c2nc3ncccn3c2/C=C/C(=O)c2cc(OC)c(OC)c(OC)c2)cc1 | 1.81 µM | 3.65 µM |
| c1cc(OCCN2CCCCC2)ccc1CNc1ccc2nc(CCC3CCCCC3)[nH]c2c1 | 1.58 µM | 3.84 µM |
| COc1c(Cl)c2c(c(OC)c1OC)-c1ccc(SC)c(=O)cc1[C@@H](NC(=O)OCC(F)(F)F)CC2 | < 0.01 µM | 17.3 µM |
| Cc1ccc(NC2=C(Cl)C(=O)c3nc(C)ccc3C2=O)c(C)c1 | 1.61 µM | 3.32 µM |
| O=c1[nH]ccc2nc(N3CCC(O)CC3)nc(Nc3cccc(C(F)(F)F)c3)c12 | 1.76 µM | 7.11 µM |
| Cc1cc(-c2nnc(N)nc2-c2ccc(F)cc2)cc(Cl)n1 | 20.6 µM | > 100 µM |
| C=C[C@H]1CCC/C=C/[C@@H]2C[C@H](O)C[C@H]2[C@H](O)/C=C/C(=O)O1 | < 0.01 µM | < 0.0153 µM |
| CCCN1CCN(c2ccc3nc(-c4ccc5nc(-c6cc(OC)ccc6OC)[nH]c5c4)[nH]c3c2)CC1 | 1.7 µM | 3.31 µM |
| CCOc1ccc(Nc2nc(-c3ccc4c(c3)NC(=O)CO4)cs2)cc1 | 2.46 µM | 8.04 µM |
| O=P([O-])(O)OP(=O)([O-])O.[NH-][C@@H]1CCCC[C@H]1[NH-].[Pt+4] | 21.5 µM and 8.19 µM | > 100 µM and 27.7 µM |
| O=C(Nc1ccc(F)cc1F)c1cc(Br)ccc1O | 2.54 µM | 6.91 µM |
| COc1cc2c(Oc3ccc4[nH]c(C)cc4c3F)ccnc2cc1OCC1(N)CC1 | 0.312 µM | 1.67 µM |
| CN(C)C1CCN(C(=O)c2ccc(NC(=O)Nc3ccc(-c4nc(N5CCOCC5)nc(N5CCOCC5)n4)cc3)cc2)CC1 | 0.00749 µM and 0.013 µM | 0.0636 µM and 0.185 µM |
| CCN(CC)CCOc1ccc(C(=C(C)Cc2ccc(OC)cc2)c2ccc(OCCN(CC)CC)cc2)cc1 | 3.27 µM | 6.65 µM |
| Cc1cc(N2CCN(c3ccnc4cc(Cl)ccc34)CC2)nc(NC2CCCCC2)n1 | 1.59 µM | 3.88 µM |
| C=CCN1C=CC(=O)[C@H](O[Si](C)(C)C(C)(C)C)[C@@H]1/C=C/c1ccccc1 | 8.27 µM | 22.2 µM |

| Compound | GI50 | TGI |
| --- | --- | --- |
| CC1(C)CC(n2cnc(-c3ccc(F)cc3)c2-c2ccnc(N)n2)CC(C)(C)N1 | 4.23 µM | 24.2 µM |
| Cc1cc(N2CCCC2)nc(NC2CCCC(Nc3ccnc4cc(Cl)ccc34)C2)n1 (configuration not stated) | 1.41 µM | 3.14 µM |
| O=C([O][Hg][CH2]C1COCC([CH2][Hg][O]C(=O)c2ccccc2)O1)c1ccccc1 (configuration not stated) | 1.72 µM | 3.24 µM |
| Cn1ccnc1C(=O)/C=C/c1ccc(CNC(=O)c2ccc(F)cc2)cc1 | 1.66 µM | 7.04 µM |
| O=S(=O)(c1ccc(N=C2NN=C(c3c[nH]c4ccccc34)CS2)cc1)N1CCOCC1 | 5.46 µM | > 100 µM |
| CCN=c1cc2sc3cc(NCC)c(C)cc3nc-2cc1C | 0.86 µM | 5.57 µM |
| COC(=O)c1c2c(c(C)[n+]([O-])c1C)C(=O)C=C(NCc1ccc(OC)cc1)C2=O | 0.679 µM | 2.01 µM |
| Cc1ccc(-c2nc(N)nc3c2nnn3Cc2cccc(CO[C@H]3CCOC3)n2)o1 | 44.4 µM | > 100 µM |
| O=C(N/N=C/c1ccccc1Cl)c1ccccc1Nc1ccnc(C(F)(F)F)c1 | 2.25 µM | 11.1 µM |
| COc1ccc(CNc2c3ccccc3nc3ccc(OC)cc23)cc1 | 1.82 µM | 4.31 µM |
| O=C(CC12CC3CC(CC(C3)C1)C2)NCCOCCOCCOCCNC(=O)c1cc2c(o1)C(=O)c1ccccc1C2=O | 1.39 µM | 4.36 µM |
| O=CN1N=C(c2ccc(Cl)cc2)CC1c1cccc(Nc2ccnc3cc(Cl)ccc23)c1 (configuration not stated) | 0.284 µM | 3.93 µM |
| NC(=O)c1ccc2c(-c3ccnc(NCCCO)n3)c(-c3ccc(F)cc3)nn2c1 | > 16.1 µM | > 25 µM |
| C[C@@H]1N=C(c2ccc(Br)cc2)Nc2nc3ccccn3c2C1=O | 1.98 µM | 5.12 µM |
| Nc1cc(-c2cccc(OC(F)(F)F)c2)nc2ccc(N3CCCC3)cc12 | 0.0337 µM and 0.0304 µM and 0.0288 µM | 0.237 µM and 0.115 µM and 0.136 µM |
